Data published in US20060269497A1, “Trichogenous agent” (YAMAHA HATSUDOKI KABUSHIKI KAISHA, priority 2005, published 2006).

Assays:
[1] = test system: hair regrowth in telogen-phase C3H/HeN Slc mice; experiment: Examination of trichogenous effect (hair regrowth on shaved back of mice); format: in vivo; conditions: 10 mg/mL test solution
Protocol: The trichogenous effect in mice of the astaxanthin monoester obtained in Preparation Example 1 was examined. The astaxanthin monoester obtained in Preparation Example 1 was dissolved in 20% (v/v) ethanol-containing a-tocopherol to prepare a 10 mg/mL astaxanthin monoester test solution. Male 7-week-old C3H/HeN Slc (SPF) mice were divided into three groups, i.e., a test group, a positive control group, and a negative control group, of 10 each. It should be noted that 45 to 95-day-old C3H mice are in the telogen phase of the hair cycle. Hairs were shaved from a site measuring 5 cm x 3 cm on the back of each mouse, and the above-described test solution was applied to that site in a dosage of 0.05 mL once a day for 18 days to observe the conditions of hair regrowth. In the positive control group, 1% (w/v) minoxidil (in 50% (v/v) ethanol), and in the negative control group, 50% (v/v) ethanol were applied. The conditions of hair regrowth were evaluated, using the following scoring criteria, expressed in terms of percentage of the surface area of the test site where the observed change occurred.
1: skin changed to gray (in less than 50% of area)
2: skin changed to gray (in 50% or more of area) and hair regrowth was observed (in less than 50% of area)
3: skin changed to gray (in 50% or more of area) and hair regrowth was observed (in 50% or more but less than 80% of area)
4: hair regrowth was observed distinctly (in 80% or more but less than 100% of area)
5: hair regrowth was observed distinctly (in 100% of area)

[2] = test system: Human umbilical vein endothelial cells (HUVECs); experiment: Measurement of 50% lethal concentration for HUVEC (alamarBlue); format: cell-based; conditions: 72 hours incubation, 250 μM = maximum concentration dissolved in DMSO
Protocol: Human umbilical vein endothelial cells (HUVECs) (ATCC CRL-1730) were obtained from American Type Culture Collection and precultivated in an Endothelial Cell Growth Medium (CELL APPLICATIONS, USA) containing 10% bovine fetal serum supplemented with 1% Antibiotic-Antimycotic solution (GIBCO BRL, USA) under a 5% CO2 atmosphere at 37° C.
A Matrigel matrix (BD Biosciences, USA) was melted and kept at 4° C. on ice, and then, 50 μL of the matrix were transferred to each well of a 96-well tissue culture plate. The plate was incubated at 37° C. for at least one hour to solidify the matrix solution. […]
After the incubation, 20 μL of a 90% alamarBlue reagent were added to individual wells, and incubated for an additional 6 hours. Then, the fluorescence intensity of each well was measured at an excitation wavelength of 530 nm and an emission wavelength of 590 nm using a Spectrafluor Plus plate reader to count the number of living cells. […] The 50% lethal concentration was calculated as the concentration at which the number of living cells was 50% of the number of cells at the start of the experiment.

astaxanthin monoester
trichogenous effect (hair regrowth scoring) compared to negative control group ([1]; 0.05 mL applied once a day for 18 days to shaved back of male C3H/HeN mice, vs 50% ethanol): markedly superior trichogenous effect
appearance (onset) of trichogenous effect compared to positive control group ([1]; 0.05 mL once a day for 18 days, topical, mice, vs 1% (w/v) minoxidil): appeared a little later than in the positive control group
rate of progress of hair regrowth after the hairs begun to grow ([1]; 0.05 mL once a day for 18 days, topical, mice, vs 1% minoxidil and negative control): higher than that in the positive control group
LC50 (50% lethal concentration) [2]: ≥ 250 µM
